Series [1] deals with LOX. Also on record: method as in doi:10.1007/s00044-013-0559-7. To be noted: read-out: LOX inhibition IC50; cited from earlier work.
Series [2] has as its system tyrosinase. Put plainly: Tyrosinase inhibition test. The format is biochemical. As for the experimental part: The tyrosinase inhibition test was performed at concentrations of 31.25 to 500 µM.
Figure 1 Tyrosinase and lipoxygenase activities of the isolated diterpenes from Copaifera sp. […] 1. 3-hydroxy-copalic acid, 2. kaurenoic acid, 3. 3-acetoxy-copalic acid, 4. kolavic acid15-methyl ester, 5. copalic acid, and 6. hardwickiic acid. Each value is the mean ± S.E. of three independent experiments. Statistical analysis was performed using Holm-Sidak multiple comparisons. * p < 0.05 compared with the negative control.

The subject of series [3] is IL-6 production. Put plainly: IL-6 production in LPS-stimulated J774 cells (CBA). The format is cell-based, murine. The settings on record: for inhibition of IL-6 production (words): LPS-stimulated J774; for inhibition at 25 µM: Mus musculus, J774, 25 µM (abstract). As for the experimental part:
Figure 2 Effect of the isolated diterpenic acids on nitric oxide (NO^•) and cytokine production in lipopolysaccharide-stimulated J774 cells. (A) TNF-α, (B) IL-6 and (C) IL-10 and (D) NO^•. […] The nitrite and cytokines values are the mean ± S.D. from three independent experiments. Indomethacin was used as a standard. Statistical analysis was performed using the Holm-Sidak multiple comparison. * p < 0.05 when compared to control stimulated with LPS. (1) 3-hydroxy-copalic acid, (2) kaurenoic acid, (3) 3-acetoxy-copalic acid, (4) kolavic acid 15-methyl ester, (5) copalic acid and (6) hardwickiic acid.
[…] The culture supernatants were collected after 24 h of LPS stimulation. The levels of cytokines in the culture media were measured by flow cytometry (BD Cytometric Bead Array—CBA—Mouse Inflammation kit) according to the manufacturer’s instructions.

Series [4] deals with AGP01 (gastric). Put plainly: Alamar Blue assay, tumoral cells AGP01. To be noted: 72 h, 20 µmol/L. The format is cell-based. As for the experimental part:
(§1) We also investigated possible cytotoxic effects on tumor cell lines (Table 1). To characterize this activity, the compounds were tested in different tumor cell lines, among which were AGP-01 (gastric), HCT116 (colorectal), MCF07 (breast cancer), NIHOVCAR (ovary), SKAMELL-4 (melanoma), and SF-295 (human glioblastoma), each at a concentration of 20 µM.
(§2) Cytotoxicity assay. The cytotoxicity of diterpene compounds to the murine macrophage cell line J774 was determined by the Alamar Blue method as described by Nakayama et al.. Briefly, adherent cells (5 × 10^3 cells/well) were grown in 96-well tissue culture plates and exposed to substances (2.5 to 10 µg/mL) for 24, 48 and 72 h. After incubation, the Alamar Blue solution (10 μL of 0.4% Alamar Blue (resazurin) in PBS) was added and the cells were incubated for 3 h at 37 °C. Fluorescence was measured (excitation at 545 nm and emission at 595 nm) and expressed as a percentage of the cells in the control after background fluorescence was subtracted. As a positive control of cell death, doxorubicin (5 µg/mL) was used. The assays were performed in triplicate. For the assays with tumoral cells, an Alamar Blue assay was performed using the following cell lines: AGP01—gastric; HCT116—colorectal; MCF07—breast cancer; NIHOVCAR—ovary; SKAMELL4—melanoma; SF295—human glioblastoma, which were seeded in 96-well plates (0.5 × 10^4 cells per well) and incubated in a CO2 atmosphere at 5% and 37 °C. After 24 h, diterpenes at 20 µM were added to each well and incubated for 72 h. Doxorubicin (10 μM) was used as a positive control and DMSO (0.1%) as a negative control. Before the end of the incubation, 10 µL of Alamar Blue (0.02%) was added to each well. The fluorescent signal was monitored using a multiplate reader using a 530–560 nm excitation wavelength and 590 nm emission wavelength. The fluorescent signal generated from the assay was proportional to the number of live cells in the sample, according to the manufacturer.
In general terms: The colour change of resazurin is a common sign of viable cells or microbes.

The test system of series [5] is SF295 (human glioblastoma). Put plainly: Alamar Blue assay, tumoral cells SF295. Format: cell-based. The settings on record: 72 h, 20 µmol/L. The method, then: as §1, §2
Series [6] has as its system HCT-116 (colorectal). Put plainly: Alamar Blue assay, tumoral cells HCT-116. Format: cell-based. The settings on record: 72 h, 20 µmol/L. The method, then:
as §1, §2

For series [7], the system named is IL-10 production. Put plainly: IL-10 production in LPS-stimulated J774 cells (CBA). Format: cell-based, murine. The method, then:
Figure 2 Effect of the isolated diterpenic acids on nitric oxide (NO^•) and cytokine production in lipopolysaccharide-stimulated J774 cells. (A) TNF-α, (B) IL-6 and (C) IL-10 and (D) NO^•. Production of NO^• was assayed in culture supernatants of macrophages stimulated with LPS (1 µg/mL) for 24 h in the presence of the four compounds (25 µg/mL to cytokines and 50 µg/mL to NO^•). The nitrite and cytokines values are the mean ± S.D. from three independent experiments. Indomethacin was used as a standard. Statistical analysis was performed using the Holm-Sidak multiple comparison. * p < 0.05 when compared to control stimulated with LPS. (1) 3-hydroxy-copalic acid, (2) kaurenoic acid, (3) 3-acetoxy-copalic acid, (4) kolavic acid 15-methyl ester, (5) copalic acid and (6) hardwickiic acid.
Macrophage cells (1 × 10^6 cells/mL) were incubated with different concentrations of diterpene compounds (12.5 to 50 μM), and then stimulated with 1 μg/mL of LPS. The culture supernatants were collected after 24 h of LPS stimulation. The levels of cytokines in the culture media were measured by flow cytometry (BD Cytometric Bead Array—CBA—Mouse Inflammation kit) according to the manufacturer’s instructions.

Series [8] deals with SKMELL28 (melanoma). The series can be described thus: Alamar Blue assay, tumoral cells SKMELL28. The format is cell-based. The settings on record: 72 h, 20 µmol/L. As for the experimental part:
as §1, §2

In series [9] the test system is NIHOVCAR (ovary). The series can be described thus: Alamar Blue assay, tumoral cells NIHOVCAR
The format is cell-based. To be noted: 72 h, 20 µmol/L. As for the experimental part: as §1, §2

The subject of series [10] is MCF7 (breast cancer). Put plainly: Alamar Blue assay, tumoral cells MCF7. To be noted: 72 h, 20 µmol/L. Format: cell-based. The method, then:
as §1, §2

Series [11] has as its system nitric oxide production in J774 macrophages stimulated with LPS. The series can be described thus: NO production assay (Griess) in LPS-stimulated J774 cells. To be noted: Mus musculus; for IC50: J774, LPS 1 µg/mL, 24 h, read-out: inhibition of NO production IC50. The format is cell-based, murine. As for the experimental part: Our study evaluated the effects of diterpene compounds on the production of nitric oxide in the murine macrophage cell line J774 stimulated with LPS (Figure 2D). NO^• levels were measured by the Greiss method. […] Similar results for kaurenoic acid were observed by Choi et al. […] Figure 2 Effect of the isolated diterpenic acids on nitric oxide (NO^•) and cytokine production in lipopolysaccharide-stimulated J774 cells. (A) TNF-α, (B) IL-6 and (C) IL-10 and (D) NO^•. […] The nitrite and cytokines values are the mean ± S.D. from three independent experiments. Indomethacin was used as a standard. Statistical analysis was performed using the Holm-Sidak multiple comparison. * p < 0.05 when compared to control stimulated with LPS. (1) 3-hydroxy-copalic acid, (2) kaurenoic acid, (3) 3-acetoxy-copalic acid, (4) kolavic acid 15-methyl ester, (5) copalic acid and (6) […]. NO^• production by J774 cells was assayed by measuring the accumulation of nitrite in the culture medium using a Griess reaction. Briefly, after incubation of the cells (1 × 10^6 cells/mL) with diterpene compounds in different concentrations from 6.25 to 100 μM, cells were incubated for 24 h with LPS (1 μg/mL), at 37 °C in a 5% CO2 incubator. Nitric oxide was measured as NO2 in culture supernatant by reaction with Griess reagent. Absorbance of the reaction product was determined at 560 nm using a microplate reader (DTX 800, Beckman). Sodium nitrite was used as a standard to calculate nitrite concentrations.
On the technique in general: The Griess reaction detects nitrite, a stable product of nitric oxide.

Series [12] relates to erythrocyte. The series can be described thus: Hemolysis test.
Method: The assay for the characterization of hemolytic activity aimed to evaluate the potential of diterpenes on lysis of the cell membrane.
Blood was collected in heparinized-tubes from Wistar rats, and washed three times with saline solution (NaCl 0.85% + CaCl2 10 mM) by centrifugation at 700 g for 10 min. The pellet of erythrocyte was re-suspended in saline solution for preparation of erythrocyte suspension −2% (SE). A total of 100 µL of the samples of diluted diterpenes was added to 96-well microplates in different concentrations (6.25 to 800 µM); 100 µL of SE was then added; and the samples were incubated for 60 min at 37 °C under constant agitation. The release of hemoglobin was determined after centrifugation (700 g for 10 min) by photometric analysis of the supernatant at 540 nm. Complete hemolysis was achieved using 0.2% Triton X-100 yielding the 100% control value.
Setting [13] is: LPS-stimulated J774, 12.5 to 50 µM.

Several values for one entry are separate records, joined by “and”; a condition that tells them apart may be missing. Identical values can stand only once. Entries after “also recorded” stand apart in the source; their conditions may differ.

As to `COc1c(C(C)C)cc2c(c1OC)[C@@]13CCC(=O)C(C)(C)[C@@H]1[C@H](OC3=O)C2=O` [taxusabietane C], in series [1], the 50% inhibitory concentration (IC50) was 69 ± 0.31 µM.

With `O=c1cc(CO)occ1O` [Kojic acid, reference compound], in series [2] (700 µM), the “tyrosinase inhibition (activity of standard)” value was determined as 73.5%.

With `C=C1CCC2C(C)(C)[C@H](OC(C)=O)CC[C@@]2(C)[C@@H]1CCC(C)=CC(=O)O` (stereo in doubt) [3-acetoxy-copalic acid, 3-Acetoxy-copalic acid], the “inhibition of IL-6 production (words)” value in series [3] is “inhibited the production of IL-6”. The molecule also showed an inhibition at 25 µM in series [3] of 23.8%. In addition, the “Viability inhibition (%) AGP01” value in [4] is recorded as 13.1 ± 5.3%. Also, the “Viability inhibition (%) SF295” value was 17.7 ± 0.9% in [5] and “around 20%” in [5] (listed as 3-AcO-copalic). The “Viability inhibition (%) HCT-116” value in series [6] was ≤0.01%. In addition, the “IL-10 production (words)” value in series [7] (12.5 µM and 25 µM) is on record as “induced the production of IL-10”; in series [7] (50 µM) it was “this induction decreased”; in series [7] (setting [13]) it was “increased IL-10 production; also recorded: induced IL-10 production”. In addition, the “Viability inhibition (%) SKMELL28” value in series [8] is given as ≤0.01%. The “Viability inhibition (%) NIHOVCAR” value in series [9] is reported as 2.0 ± 3.5%. Further, in series [10], the “Viability inhibition (%) MCF7” value is ≤0.01%.

Turning to `COc1c(C(C)C)cc2c(c1O)C=C1C=CC(=O)C(C)(C)C1CC2=O` (stereo not drawn) [taxamairin F], the IC50 in series [1] was 73 ± 0.14 µM.

As to `COc1ccc2c(c1)c(CC(=O)O)c(C)n2C(=O)c1ccc(Cl)cc1` [indomethacin, reference compound], in series [11], the IC50 is 32 ± 3.5 µM.

For the molecule `C[C@@H]1CC[C@@]2(C)C(C(=O)O)=CCC[C@@H]2[C@@]1(C)CCc1ccoc1` [hardwickiic acid, Hardwickiic acid], the “Viability inhibition (%) SF295” value in [5] is ≤0.01%. In addition, the “Viability inhibition (%) HCT-116” value in series [6] is given as ≤0.01%. In addition, the “IL-10 production (words)” value in [7] (setting [13]) is given as “did not induce the production of IL-10”. Besides, in series [11], the IC50 was 67.4 ± 1.3 µM. Further, the “Viability inhibition (%) SKMELL28” value in [8] was ≤0.01%. For the same molecule, the “Viability inhibition (%) NIHOVCAR” value in [9] is reported as ≤0.01%. In addition, in [10], the “Viability inhibition (%) MCF7” value is ≤0.01%.

`C=C1CCC2C(C)(C)[C@H](O)CC[C@@]2(C)[C@@H]1CC/C(C)=C\C(=O)O` (stereo partly drawn) [3-hydroxy-copalic acid, 3-Hydroxy-copalic acid]: the tyrosinase inhibition in [2] (250 µM) was 63.9% and 64% ± 1.5%. In addition, the “tyrosinase activity relative to standard kojic acid” value in [2] (63.9% at 250 µM vs 73.5% at 700 µM) is listed as “three times more active than the standard”. Besides, the “tyrosinase inhibitory activity” value in [2] (conclusions) is “higher inhibitory activity”. Further, the IC50 in series [2] (tested at 31.25 to 500 µM) turned out to be 256 µM. In addition, the “Viability inhibition (%) AGP01” value in series [4] came to 8.5 ± 13.1%. For the same molecule, the “Viability inhibition (%) SF295” value in [5] was 20.5 ± 5.0%; in series [5] (listed as 3-HO-copalic) it was “around 20%”. In addition, in series [6], the “Viability inhibition (%) HCT-116” value came to 4.7 ± 5.6%. Further, the “IL-10 production (words)” value is listed as “promoted the induction of IL-10 independent of the dose tested” in [7] (setting [13]) and “induced IL-10 production; also recorded: induced production of interleukin-10” in series [7] (LPS-stimulated J774, 12.5 to 50 µM, listed as 3-hydroxy-copalic). Moreover, the “Viability inhibition (%) SKMELL28” value in series [8] is given as ≤0.01%. The “Viability inhibition (%) NIHOVCAR” value in [9] is given as ≤0.01%. In addition, the “Viability inhibition (%) MCF7” value in [10] is recorded as ≤0.01%.

With `C=C1CC[C@@H]2C(C)(C)CCC[C@@]2(C)[C@@H]1CC/C(C)=C/C(=O)O` [copalic acid, Copalic acid], in series [3], the “inhibition of IL-6 production (words)” value is recorded as “inhibited the production of IL-6” and the inhibition at 25 µM came out at 4.2%. Also, the “Viability inhibition (%) SF295” value in series [5] is given as ≤0.01%. In addition, the “Viability inhibition (%) HCT-116” value in [6] is given as ≤0.01%. Moreover, the “IL-10 production (words)” value in series [7] (setting [13]) is recorded as “increased IL-10 production; also recorded: induced IL-10 production; also recorded: induced production of interleukin-10”. In series [11] (J774, 100 µM, LPS-activated macrophages), the inhibition at 100 µM is 98.5%. Further, the IC50 in [11] was found to be 57.4 ± 0.2 µM. Moreover, the “Viability inhibition (%) SKMELL28” value in [8] is given as ≤0.01%. In addition, the “Viability inhibition (%) NIHOVCAR” value in [9] was ≤0.01%. For the same molecule, the “Viability inhibition (%) MCF7” value in [10] is given as ≤0.01%. Moreover, the hemolytic activity in [12] (100 µM (abstract)) was found to be 38.4%. The hemolytic activity in series [12] (100 mM (so in the source)) is 38.4%.

A word on the IC50: it is the concentration needed to halve the response being measured. Usually inhibition stands for the percentage by which the read-out fell short of the control.

Source of the values: article PMC6272497, “Biological Activities and Cytotoxicity of Diterpenes from Copaifera spp. Oleoresins” (Molecules, 2015).
